Measurements as given in publication PMC10455244, “Alpha-Mangostin: A Potent Inhibitor of TRPV3 and Pro-Inflammatory Cytokine Secretion in Keratinocytes” (International Journal of Molecular Sciences, 2023).

Experiments:
[1] = molecular target: T1, TRPV3 (G573C) (Homo sapiens, UniProt Q8NET8, G573C); assay: Fura-2 calcium imaging, spontaneous Ca2+ increase in TRPV3 (G573C)-expressing HEK 293T cells; format: cell-based; details: 1 µM
T1 construct: host or cells: HEK 293T (transient transfection, pEGFP-N1 co-transfected as a marker)
T1 sequence (Q8NET8 1-790 G573C): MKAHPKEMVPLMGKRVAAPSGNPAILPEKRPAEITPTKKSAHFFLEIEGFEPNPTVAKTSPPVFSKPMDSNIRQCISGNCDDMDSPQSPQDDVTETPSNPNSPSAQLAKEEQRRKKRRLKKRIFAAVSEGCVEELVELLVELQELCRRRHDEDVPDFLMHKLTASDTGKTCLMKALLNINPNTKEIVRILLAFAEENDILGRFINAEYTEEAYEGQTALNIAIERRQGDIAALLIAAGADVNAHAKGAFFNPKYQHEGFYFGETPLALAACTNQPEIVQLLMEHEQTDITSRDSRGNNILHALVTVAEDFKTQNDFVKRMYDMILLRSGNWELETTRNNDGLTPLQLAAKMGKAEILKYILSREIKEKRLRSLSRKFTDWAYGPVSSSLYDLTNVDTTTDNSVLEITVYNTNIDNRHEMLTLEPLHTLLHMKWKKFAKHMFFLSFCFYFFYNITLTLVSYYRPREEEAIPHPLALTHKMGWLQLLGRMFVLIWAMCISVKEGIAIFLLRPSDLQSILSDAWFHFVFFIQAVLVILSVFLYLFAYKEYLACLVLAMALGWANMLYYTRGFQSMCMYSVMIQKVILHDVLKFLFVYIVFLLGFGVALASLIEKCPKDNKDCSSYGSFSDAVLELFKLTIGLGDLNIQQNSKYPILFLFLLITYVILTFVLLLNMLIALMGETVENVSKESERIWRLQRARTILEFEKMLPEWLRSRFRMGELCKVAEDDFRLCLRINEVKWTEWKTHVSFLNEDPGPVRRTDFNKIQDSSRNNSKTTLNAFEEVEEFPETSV
Description: Figure 4 Alpha-mangostin inhibited the activity of hyperactive TRPV3 mutant channels and rescued mutation-induced cell death. (A) Alpha-mangostin inhibited the channel current in representative TRPV3 (G573S)- and TRPV3 (G573C)-expressing HEK 293T cells. […] Currents were normalized to the response at −100 mV before adding alpha-mangostin. (C) Alpha-mangostin inhibited TRPV3-mediated intracellular calcium increase in TRPV3 (G573S)-expressing HEK 293T cells. […] The bar graph on the right summarizes the change in the intracellular calcium rise inhibited by alpha-mangostin. […]
Subsequently, the effects of alpha-mangostin on the activities of the mutated channels were further evaluated using intracellular calcium measurements.
Fura-2 AM (Thermo Fisher Scientific) was utilized as a fluorescent indicator to measure calcium signal, as described previously. […] To measure the cytosolic Ca^2+ level, a sequential excitation of Fura-2 is performed at 340 nm and 380 nm; then, the emission signals resulting from each excitation wavelength are measured and the ratio of these signals is calculated. […] Samples were excited using a wavelength of 380 nm for 20 ms, followed by 340 nm for 100 ms, and fluorescence at 510 nm was recorded. Recorded data were then analyzed using NIS-Element AR Version 5.00.00 (Nikon Instruments, Melville, NY, USA). […]

[2] = test system: TRPV1; details: read-out: IC50 (µM), channel inhibited TRPV1; cited from earlier work

## COc1c(O)cc2oc3cc(O)c(CC=C(C)C)c(O)c3c(=O)c2c1CC=C(C)C [Alpha-mangostin]
[1]
  Effect on spontaneous intracellular calcium increase: potently attenuated
[2]
  IC50: 0.43 ± 0.27 µM
